Counter-ions that a name gives are not always drawn. Blank lines part the entries; values can stand above or below the compound they belong to.
Key:
[1] = Hygroscopicity of wet crystals; type: physicochemical; conditions: wet crystals during filtration
Protocol: The volume of the solution of 15 from the previous step was adjusted to 60 L with ethyl acetate and EtOH (4.8 L) was added. The MsOH (316 mL) was added in 3 L of EtOAc at 45° C. To the deep red homogeneous solution was added 496 g of the title compound Form I seed (10% seed based on the weight of the free amine was employed). The temperature rose to ca. 48° C. and the reaction was aged at 52° C. for 1.5 hours. Analysis indicated complete conversion to the title compound (Form I). (At less than 10% seed longer age (>3 hours) was required). The slurry was allowed to cool to 20° C. overnight and was filtered in a centrifuge under N2. The cake was washed with 20 L of 8% EtOH in EtOAc. […] The batch was dried at 35° C. under vacuum to afford 2.7Kg (56% overall yield) of the title compound (Form I) (99.9 A % purity; <0.1% enantiomer).

[2] = physchem; type: physicochemical; conditions: solid state, initial compound present
Protocol: As a mimic of the tablet formulation process, a concentrated solution of N-[1(R)-[(1,2-dihydro-1-methanesulfonylspiro[3H-indole-3,4'-piperdin]-1'-yl)carbonyl]-2-(phenylmethyloxy)ethyl]-2-amino-2-methylpropanamide methanesulfonate (118 mg) in 120 μL 25% aqueous ethanol (980 mg/ml) was evaporated at 40° C. to give a solid. The lack of crystallinity was confirmed by X-ray analysis.
After 12 weeks at 40° C., 100% of the initial compound was present; after 12 weeks at 60° C., 99.7% of the initial compound was present; after 12 weeks at 80° C., 97.8% of the initial compound was present.

[3] = test system: growth hormone; test: Growth hormone secretagogue assay described by Smith, et al., Science, 260, 1640-1643 (1993); type: cell-based; conditions: assay of Smith et al., Science 1993
Excerpt: Such a result is indicative of the activity of the formulation of the present invention as a growth hormone secretagogue.

[4] = Stability of the compound in standard pharmaceutical formulations; type: physicochemical
[5] = Flow properties of bulk drug; type: physicochemical; conditions: as a bulk drug

hygroscopicity [1]: very hygroscopic
SMILES: CC(C)(N)C(=O)N[C@H](COCc1ccccc1)C(=O)N1CCC2(CC1)CN(S(C)(=O)=O)c1ccccc12 [Compound 16, N-[1(R)-[(1,2-Dihydro-1-methanesulfonylspiro[3H-indole-3,4'-piperdin]-1'-yl)carbonyl]-2-(phenylmethyloxy)ethyl]-2-amino-2-methylpropanamide mesylate]

remaining at 2016 h [2]: 100%
SMILES: CC(C)(N)C(=O)N[C@H](COCc1ccccc1)C(=O)N1CCC2(CC1)CN(S(C)(=O)=O)c1ccccc12 [amorphous form, N-[1(R)-[(1,2-dihydro-1-methanesulfonylspiro[3H-indole-3,4'-piperdin]-1'-yl)carbonyl]-2-(phenylmethyloxy)ethyl]-2-amino-2-methylpropanamide methanesulfonate]

stability in standard pharmaceutical formulations [4]: relatively unstable | flow properties [5]: poor flow properties
SMILES: CC(C)(N)C(=O)N[C@H](COCc1ccccc1)C(=O)N1CCC2(CC1)CN(S(C)(=O)=O)c1ccccc12 [active ingredient, N-[1(R)-[(1,2-dihydro-1-methane-sulfonyl-spiro[3H-indole-3,4'-piperdin]-1'-yl)carbonyl)-2-(phenyl-methyl-oxy)ethyl]-2-amino-2-methyl-propanamide]
activity as a growth hormone secretagogue [3]: had activity as a growth hormone secretagogue
